“Also recorded” adds a separate entry of the source.

One data set concerns MMP2 and MMP9 activity. Briefly: in vivo MMP activity (MMPSense 750 FAST) after carotid ligation. On the set-up: species or system mouse. The note with it: 24 h post injection, ligated mice. The procedure: Mice were tail vein injected with 600 uL of MMPSense 750 FAST, a near-infrared fluorescence sensor for MMP2 and MMP9 activity, (PerkinElmer, USA). Mice were sacrificed 24 h post injection and aortas were dissected and analyzed using a Kodak image station 4000MM Pro for macroscopic fluorescence reflectance molecular imaging.
Cohorts of 10-week-old wild-type mice were treated with oral administration in drinking water of GSK343 24 hrs before left carotid ligation and following treatment for 3 weeks. GSK343 inhibitor (25 mg) was dissolved in 1 mL of DMSO to obtain a stock solution of 46 mM. Then, 250 ml of drinking water was supplemented with 250 pl of GSK343 stock solution. Control group for was given with equal volumes of sterile water. Bottles containing GSK343 were replaced with fresh water supplied with drug every 3 days. For Malatl antisense LNA treatments, cohorts of 10-week-old wild-type mice were injected with 15 nmol in saline solution 24 hrs before left carotid ligation following by a second injection 7 days post-ligation.

The subject of the next data set is Hdac9. The experiment in a line: immunofluorescence of Hdac9 in ligated carotid. The class given is in vivo, mouse. To be noted: arterial media and intima of carotid arteries. On the procedure: (§1) All mice used in this study were cared for under strict compliance with the Partners Institutional Animal Care and Use Committee (IACUC), regulated by the United States Public Health Service (USPHS). Carotid ligations were performed in 10 week old mice. Briefly, animals were anesthetized using intraperitoneal ketamine/xylazine (80 and 12 mg/kg, respectively) followed by a small incision in the neck to expose the carotid artery. Then the left carotid was ligated at the carotid bifurcation level using a 8-0 silk suture. At 21 days mice were sacrificed and carotids were collected for histological analysis. Approximately 98% of wild type mice developed stenotic lesions. Mice that developed thrombosis of the ligated carotid were excluded from the study (−1¬2%). Malatl knockout mice were kindly provided by Dr. David Spector (Cold Spring Harbor, N.Y.). Hdac9 flox/flox/Talgn-cre mice were generated as previously reported (10). […]
(§2) Left and right carotids were cryosectioned using OCT standard protocol and sectioning. […] Slides 1, 5, 10, and 15 were H&E stained for quantification of neointima. For quantification of the neointima, internal and external elastic lamina perimeters and medial thickness from 4 quadrants were measured and averaged using Image J software from the National Institutes of Health (NIH). […]

The test system of another data set is a-SMA and SM22a. Briefly: immunofluorescence of contractile proteins in ligated carotids. The class given is in vivo, mouse. To be noted: ligated carotids of treated mice. On the procedure:
All mice used in this study were cared for under strict compliance with the Partners Institutional Animal Care and Use Committee (IACUC), regulated by the United States Public Health Service (USPHS). Carotid ligations were performed in 10 week old mice. Briefly, animals were anesthetized using intraperitoneal ketamine/xylazine (80 and 12 mg/kg, respectively) followed by a small incision in the neck to expose the carotid artery. Then the left carotid was ligated at the carotid bifurcation level using a 8-0 silk suture. At 21 days mice were sacrificed and carotids were collected for histological analysis. Approximately 98% of wild type mice developed stenotic lesions. Mice that developed thrombosis of the ligated carotid were excluded from the study (−1¬2%). Malatl knockout mice were kindly provided by Dr. David Spector (Cold Spring Harbor, N.Y.). Hdac9 flox/flox/Talgn-cre mice were generated as previously reported (10). Ezh2 fl/fl/ (STOCK Ezh2tm2Sho/J) and Myh11-cre-GFP (B6.Cg-Tg(Myh11-cre,-EGFP)2Mik/J) were crossed to generate smooth muscle cell-Ezh2 deficient mice. All above mice and wild-type mice (C57BL/6J) were purchased from Jackson laboratory. For tissue analysis, animals were euthanized through inhalational isoflurane (Sigma, St, Louis, Mo.) prior to tissue collection. All carotid ligation (left carotid) procedures were performed at 10 weeks of age. All experiments were performed on male and female animals at a 1:1 ratio.
Left and right carotids were cryosectioned using OCT standard protocol and sectioning. The right carotid artery was unligated and served as an internal control. Neoinitima analysis was performed from hematoxylin and eosin (H & E) stained horizontal cross-sections embedded in Optimal Cutting Temperature compound (OCT). Briefly, the distal 0.2 mm of carotid from the ligation suture site were discarded followed by generation of 20 slides (10 pM). Slides 1, 5, 10, and 15 were H&E stained for quantification of neointima. For quantification of the neointima, internal and external elastic lamina perimeters and medial thickness from 4 quadrants were measured and averaged using Image J software from the National Institutes of Health (NIH). Slides 2-4, 6-9, and 11-14 were used for immunofluorescence staining.
Cohorts of 10-week-old wild-type mice were treated with oral administration in drinking water of GSK343 24 hrs before left carotid ligation and following treatment for 3 weeks. GSK343 inhibitor (25 mg) was dissolved in 1 mL of DMSO to obtain a stock solution of 46 mM. Then, 250 ml of drinking water was supplemented with 250 pl of GSK343 stock solution. Control group for was given with equal volumes of sterile water. Bottles containing GSK343 were replaced with fresh water supplied with drug every 3 days. […]

In a further data set the test system is PDGFR. Briefly: immunofluorescence of p-PDGFR in ligated carotid. The class given is in vivo, mouse. To be noted: media and intima of carotid arteries. The procedure: as §1, §2
The subject of the next data set is FAK. The experiment in a line: immunofluorescence of p-FAK in ligated carotid. The class given is in vivo, mouse. The note with it: media and intima of carotid arteries. The procedure: as §1, §2
A further data set has as its system Mmp9. Briefly: immunofluorescence of Mmp9 in ligated carotid. The class given is in vivo, mouse. The note with it: arterial media and intima of carotid arteries. On the procedure: as §1, §2
Data set [1] concerns neointimal formation in ligated carotid. Briefly: murine carotid artery ligation model: neointimal formation and stenosis (histology). The class given is in vivo, mouse. To be noted: wild-type mice, left carotid ligation, 21 days; GSK343 in drinking water from 24 hrs before ligation for 3 weeks; GapmeR 15 nmol 24 hrs before and 7 days post-ligation. On the procedure:
as §1, §2

In the next data set the test system is TGF-β signaling. The experiment in a line: TGF-β activity by phosphorylation of Smad2 or Erk1 in aortas of treated mice. The note with it: aortic tissue of treated Fbn1C1039G/+ mice. The class given is in vivo, mouse. The procedure: (§3) Latex was injected into the left ventricular apex under low pressure until it was visible in the femoral artery. Animals were then fixed in Formalin (10%) for 24 hours before transfer to 70% ethanol for dissection and storage. Aortas were then removed from the animals or dissected in situ for photography prior to paraffinization and sectioning (10 pM). Slides were produced for tissue staining or stained with standard stains including H&E staining, collagen deposition (Trichrome Stain (Masson) Kit, Sigma, USA), elastin (Verhoeff-Van Gieson, Thermo Scientific, MI, USA) or F-actin (ActinGreen™ 488 ReadyProbes, ThermoFisher Scientific, USA) for quantitative analysis. Elastin integrity score was rated by blinded observers and graded on an arbitrary scale of 5 (indicating high quality elastic fiber) to 1 (indicating severe elastin fragmentation). For nuclear staining aortas from human and mice were cryosectioned using OCT standard protocol as described previously (Fischer et al., 2008). Cohorts of 8-week-old wild-type or Fbn1cw3gGi+ mice were treated with oral administration in drinking water of either Losartan or GSK343 for 20 weeks (FIG. 5). […] Then 200 mL of drinking water was supplemented with 250 pL of GSK343 stock solution. […] Aortic dimensions were monitored monthly by echocardiograms as mentioned above.

A further data set concerns VSMC phenotypic markers. Briefly: expression of VSMC phenotypic markers in aortas of treated Fbn1C1039G/+ mice. The class given is in vivo, mouse. The note with it: aortas of Fbn1C1039G/+ mice treated from two to six months. The procedure:
Total RNA was prepared from tissue or primary cells using RNeasy kit (Qiagen) following the manufacturer's protocol. The cDNA was prepared by reverse transcription, and expression of SMC contractile genes were analyzed by qRT-PCR on SYBR green system (Applied Biosystem, Foster city, CA). 50 pL of plasma from wild-type or Fbn1cl° 39G1+ mice were used to prepare total RNA as mentioned above. Expression results were analyzed by the ddCT method and GAPDH (encoding glyceraldehyde-3-phosphate dehydrogenase) was used as a housekeeping gene. Fold change were calculated by taking the average over all the control samples as the baseline. […] The supernatant was removed and the vesicular fraction was resuspended with 750 pL of TRizol reagent followed by RNA extraction using the RNeasy kit (Qiagen) according to the manufacturer's protocol. Cohorts of 8-week-old wild-type or Fbn1cw3gGi+ mice were treated with oral administration in drinking water of either Losartan or GSK343 for 20 weeks (FIG. 5). […] Then 200 mL of drinking water was supplemented with 250 pL of GSK343 stock solution. Control group for either drug treatment was given with equal volumes of sterile water. Bottles containing either losartan or GSKS343 were replaced with fresh water supplied with drugs every 3 days. For experiments described in FIG. 5A-5C, 16-week-old wild-type or Fbnicw3gGi+ mice were treated for 8 weeks and as described above. Additionally, a group of mice were given a combination of both losartan and GSK343 at the same concentrations as of other single drug treatments. Aortic dimensions were monitored monthly by echocardiograms as mentioned above.

For another data set, the system named is H3K27me3. The experiment in a line: H3K27me3 staining in aortas of treated Fbn1C1039G/+ mice. The class given is in vivo, mouse. The note with it: compared to control or losartan treated mice. The procedure: as §3
Data set [2] concerns aortic wall of Fbn1C1039G/+ mice. The experiment in a line: histologic analysis of aortas of treated Fbn1C1039G/+ mice. The class given is in vivo, mouse. The note with it: aortas of Fbn1C1039G/+ mice treated from two to six months. On the procedure:
Latex was injected into the left ventricular apex under low pressure until it was visible in the femoral artery. Animals were then fixed in Formalin (10%) for 24 hours before transfer to 70% ethanol for dissection and storage. Aortas were then removed from the animals or dissected in situ for photography prior to paraffinization and sectioning (10 pM). Slides were produced for tissue staining or stained with standard stains including H&E staining, collagen deposition (Trichrome Stain (Masson) Kit, Sigma, USA), elastin (Verhoeff-Van Gieson, Thermo Scientific, MI, USA) or F-actin (ActinGreen™ 488 ReadyProbes, ThermoFisher Scientific, USA) for quantitative analysis. Elastin integrity score was rated by blinded observers and graded on an arbitrary scale of 5 (indicating high quality elastic fiber) to 1 (indicating severe elastin fragmentation). For nuclear staining aortas from human and mice were cryosectioned using OCT standard protocol as described previously (Fischer et al., 2008). Cohorts of 8-week-old wild-type or Fbn1cw3gGi+ mice were treated with oral administration in drinking water of either Losartan or GSK343 for 20 weeks (FIG. 5). […] Then 200 mL of drinking water was supplemented with 250 pL of GSK343 stock solution. Control group for either drug treatment was given with equal volumes of sterile water. Bottles containing either losartan or GSKS343 were replaced with fresh water supplied with drugs every 3 days. For experiments described in FIG. 5A-5C, 16-week-old wild-type or Fbnicw3gGi+ mice were treated for 8 weeks and as described above. Additionally, a group of mice were given a combination of both losartan and GSK343 at the same concentrations as of other single drug treatments. Aortic dimensions were monitored monthly by echocardiograms as mentioned above.

The next data set relates to SM22a. Briefly: immunostaining of SM22a protein in aortas of treated Fbn1C1039G/+ mice. The class given is in vivo, mouse. To be noted: compared to control Fbn1C1039G/+ mice. The procedure: as §3
Data set [3] deals with aortic aneurysm in Fbn1C1039G/+ mice. Briefly: experimental aortic aneurysm in Fbn1C1039G/+ mice: echocardiographic aortic dimensions. The note with it: Fbn1C1039G/+ mice treated from two to six months of life, drinking water. The class given is in vivo, mouse. From the text:
Dimensions from each animal represent averages of measurements made on still frames in systole of the maximal internal diameter of the aortic valve annulus, aortic sinuses, sinotubular junction, or ascending aorta by a cardiologist blinded to genotype. The aorta was imaged using a standard parasternal long axis view. Based on historic controls, the mean diameter of the wild type aortic root at 4 months of life is 1.73+/-0.2 mm while in our disease model (Fbn1ci°[…]/+) the mean diameter is 2.15+/-0.3 mm. […] Nair hair removal cream was used on all mice the day prior to echocardiograms. All echocardiograms were performed on awake, unsedated mice using the Visualsonics Vevo imaging system and a 30 MHz transducer. All CT images were acquired using an Inveon small animal micro CT (Siemens Medical Solutions Inc., Malven, Pa.). All mice received intravenous iodinated contrast (Isovue-370, Bracco Diagnostic Inc.) at 20 pL/min during the scan. […] Images were visualized and analyzed in OsiriX software. Cohorts of 8-week-old wild-type or Fbn1cw3gGi+ mice were treated with oral administration in drinking water of either Losartan or GSK343 for 20 weeks (FIG. 5). […] Then 200 mL of drinking water was supplemented with 250 pL of GSK343 stock solution. […] Aortic dimensions were monitored monthly by echocardiograms as mentioned above.

In the case of “GapmeR-Malatl: GapmeR antisense oligonucleotide against MALAT1, GTCACAATGCATTCTA (SEQ ID NO: 1) (LNA gapmer, pattern not given here)”, in the data set with MMP2 and MMP9 activity, the “activity of MMPs” value was “Inhibition of Mmp activity; also recorded: inhibited the activity of MMPs”. Also, in the data set with Hdac9, the “accumulation of Hdac9” value was “decreased accumulation”. Moreover, the “expression of contractile proteins such as a-SMA and SM22a” value in the data set with a-SMA and SM22a is recorded as “improved the expression of contractile proteins”. For the same compound, the “phosphorylation of PDGFR” value with PDGFR is given as “dramatic reduction”. Moreover, the “phosphorylation of FAK” value with FAK is listed as “dramatic reduction”. In addition, the “accumulation of Mmp9” value in the data set on Mmp9 is listed as “decreased accumulation”. Besides, the “extent of the stenotic response / neointimal formation” value in [1] is “significant inhibition of neointimal formation; also recorded: dramatically improved the extent of the stenotic response”.

With `CCCCc1nc(Cl)c(CO)n1Cc1ccc(-c2ccccc2-c2nnn[n-]2)cc1.[K+]` [Losartan], the “TGF-β activity as assessed by phosphorylation of Smad2 or Erk1 protein” value in the data set with TGF-β signaling was “reduced”. Further, the “synthetic markers (Col1a1, Col3a1, Gja1, Mmp2)” value in the data set with VSMC phenotypic markers is given as “better ability to decrease”. In addition, in the data set on H3K27me3, the “H3K27me3 staining / aortic medial H3K27me3 modifications” value was “did not”. In data set [2], the “aortic architecture and filamentous actin content” value is listed as “improvement”; the elastin integrity result is “improve elastin integrity overall”. Moreover, the “SM22a protein expression (immunostaining of aortas)” value with SM22a is listed as “recovery of SM22a protein expression”. In addition, in data set [3], the aortic dimensions result is “ability to improve aortic dimensions”.
